According to the Kinase Knowledgebase extract (Sharma et al. 2016):

Target: PIK3CA (human) (UniProt P42336)
Assay: Inhibition of PIK3CA Kinase Activity

Sequence of PIK3CA (human) (P42336 whole entry, looked up): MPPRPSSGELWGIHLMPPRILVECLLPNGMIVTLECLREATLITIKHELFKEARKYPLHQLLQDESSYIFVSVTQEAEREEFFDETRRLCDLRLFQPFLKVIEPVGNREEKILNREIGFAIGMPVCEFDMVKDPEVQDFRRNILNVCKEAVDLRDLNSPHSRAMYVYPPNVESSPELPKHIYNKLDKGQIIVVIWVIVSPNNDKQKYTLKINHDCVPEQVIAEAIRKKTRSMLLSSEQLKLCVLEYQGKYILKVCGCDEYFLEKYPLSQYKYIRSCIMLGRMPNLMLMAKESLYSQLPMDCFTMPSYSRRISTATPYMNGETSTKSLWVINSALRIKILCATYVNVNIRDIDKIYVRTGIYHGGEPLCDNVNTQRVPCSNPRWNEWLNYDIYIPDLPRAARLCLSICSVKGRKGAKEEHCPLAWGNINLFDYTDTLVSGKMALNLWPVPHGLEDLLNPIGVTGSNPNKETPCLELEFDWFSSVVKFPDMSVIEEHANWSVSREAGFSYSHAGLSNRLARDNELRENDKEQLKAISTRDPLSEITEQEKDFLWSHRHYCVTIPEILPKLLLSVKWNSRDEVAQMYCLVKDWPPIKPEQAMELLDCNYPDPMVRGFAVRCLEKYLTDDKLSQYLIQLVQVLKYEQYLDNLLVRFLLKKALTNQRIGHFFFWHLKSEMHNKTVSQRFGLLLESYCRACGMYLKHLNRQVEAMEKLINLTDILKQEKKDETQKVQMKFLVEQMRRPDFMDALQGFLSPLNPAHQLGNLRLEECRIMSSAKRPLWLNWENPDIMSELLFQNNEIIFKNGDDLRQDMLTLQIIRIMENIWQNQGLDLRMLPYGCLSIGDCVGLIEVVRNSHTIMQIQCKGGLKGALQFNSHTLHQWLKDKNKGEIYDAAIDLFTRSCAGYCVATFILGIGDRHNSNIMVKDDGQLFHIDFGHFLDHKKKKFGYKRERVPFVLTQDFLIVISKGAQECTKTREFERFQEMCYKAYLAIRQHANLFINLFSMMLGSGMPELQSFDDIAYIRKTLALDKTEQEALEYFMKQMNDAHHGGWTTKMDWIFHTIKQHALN

| SMILES | IC50 |
| --- | --- |
| CN(C)C(=O)c1cc(-c2ccc3c(c2)CN(c2ncnc4c2CC(C)(C)CC4)CCO3)cnc1N | 250 to 1000 nM |
| O=C(CCCN1CCCCC1)Nc1nc2ccc(-c3ccc4c(c3)CN(c3ccnc5ccccc35)CCO4)cc2[nH]1 | 50 to 250 nM |
| Cc1nc2ccc(-c3ccc4c(c3)CN(c3ncnc(C(C)C)c3C)CCO4)cc2[nH]1 | 50 to 250 nM |
| COc1cc2ncnc(N3CCOc4ccc(-c5ccc6nc(C)[nH]c6c5)cc4C3)c2cc1Br | 50 to 250 nM |
| Cc1ncnc(N2CCOc3ccc(-c4ccc(N)nn4)cc3C2)c1Cc1ccc(F)cc1 | 250 to 1000 nM |
| COc1ccc(-c2ccc3c(c2)CN(c2nc(CN(C)C)nc4c2CC(C)(C)CC4)CCO3)cc1Cl | 250 to 1000 nM |
| CC[C@H]1CCc2c(ncnc2N2CCOc3ccc(-c4cnc5nc([C@H](C)N)[nH]c5c4)cc3C2)C1 | 50 to 250 nM |
| Cc1nc2ccc(-c3ccc4c(c3)CN(c3nc(C(C)(C)O)nc5c3CC(C)(C)CC5)CCO4)cc2[nH]1 | 50 to 250 nM |
| CN(C)c1nc2ccc(-c3ccc4c(c3)CN(c3ccnc5ccccc35)CCO4)cc2[nH]1 | 250 to 1000 nM |
| CC1(C)CCc2ncnc(N3CCOc4ccc(-c5cnc(N)c(S(=O)(=O)NC(C)(C)CO)c5)cc4C3)c2C1 | 50 to 250 nM |
| CNS(=O)(=O)c1cc(-c2ccc3c(c2)CN(c2ncnc(C)c2Cc2ccc(F)cc2)CCO3)cnc1N | 50 to 250 nM |
| CC1(C)CCc2ncnc(N3CCOc4ccc(-c5cnc6c(c5)OCCN6)cc4C3)c2C1 | 250 to 1000 nM |
| Cc1nc2ccc(-c3ccc4c(c3)CN(c3ncnc5ccc(S(C)(=O)=O)cc35)CCO4)cc2[nH]1 | 250 to 1000 nM |
| Cc1nc2ccc(-c3ccc4c(c3)CN(c3nccc5ccccc35)CCO4)cc2[nH]1 | 50 to 250 nM |
| Cc1nc2c(c(N3CCOc4ccc(-c5cnc(N)c(S(=O)(=O)NCC6CCN(C)CC6)c5)cc4C3)n1)CC(C)(C)CC2 | 50 to 250 nM |
| CC(C)(CO)CNS(=O)(=O)c1cc(-c2ccc3c(c2)CN(c2ncnc4c2CC(C)(C)CC4)CCO3)cnc1N | 50 to 250 nM |
| Cc1nc2ccc(-c3ccc4c(c3)CN(c3ncnc5ccc(F)cc35)CCO4)cc2[nH]1 | 50 to 250 nM |
| CCNS(=O)(=O)c1cc(-c2ccc3c(c2)CN(c2ncnc4c2CC(C)(C)CC4)CCO3)cnc1N | 10 to 50 nM |
| CC1(C)CCc2ncnc(N3CCOc4ccc(-c5cnc(Cl)c(S(=O)(=O)N6CC[C@H](N)C6)c5)cc4C3)c2C1 | 250 to 1000 nM |
| COCC1CCc2c(ncnc2N2CCOc3ccc(-c4cnc5nc(C)[nH]c5c4)cc3C2)C1 (stereo unspecified) | 10 to 50 nM |
| Cc1nc2ncc(-c3ccc4c(c3)CN(c3ncnc5c3CC(C)(C)C=C5)CCO4)cc2[nH]1 | 10 to 50 nM |
| CC1(C)CCc2ncnc(N3CCOc4ccc(-c5ccc(-c6ncc[nH]6)cc5)cc4C3)c2C1 | 10 to 50 nM |
| CC1(C)CCc2ncnc(N3CCOc4ccc(-c5cnc(N)c(S(=O)(=O)N[C@H]6CC[C@H](N)CC6)c5)cc4C3)c2C1 | 10 to 50 nM |
| Cc1nc2ncc(-c3ccc4c(c3)CN(c3ncnc(NC(C)C)c3C)CCO4)cc2[nH]1 | 10 to 50 nM |
| CC1(C)CCc2ncnc(N3CCOc4ccc(-c5cnc(N)c(S(=O)(=O)N6C7CCC6CC(N)C7)c5)cc4C3)c2C1 (stereo unspecified) | 10 to 50 nM |
| CC1(C)CCc2ncnc(N3CCOc4ccc(-c5cncc(S(N)(=O)=O)c5)cc4C3)c2C1 | 50 to 250 nM |

| SMILES | IC50 |
| --- | --- |
| CC1(C)CCc2ncnc(N3CCOc4ccc(-c5cnc(N)c(S(=O)(=O)NC6CC7CCC(C6)N7)c5)cc4C3)c2C1 (stereo unspecified) | 50 to 250 nM |
| Cc1nc2ncc(-c3ccc4c(c3)CN(c3ncnc5c3CCCC5(C)C)CCO4)cc2[nH]1 | 50 to 250 nM |
| CCCc1nc2cc(-c3ccc4c(c3)CN(c3ncnc5c3CC(C)(C)CC5)CCO4)cnc2[nH]1 | 50 to 250 nM |
| Cc1nc(N)sc1-c1ccc2c(c1)CN(c1ncnc(C)c1Cc1ccc(F)cc1)CCO2 | 250 to 1000 nM |
| CC1(C)CCc2ncnc(N3CCOc4ccc(-c5cnc(N)c(S(=O)(=O)NCC(O)CO)c5)cc4C3)c2C1 (stereo unspecified) | 10 to 50 nM |
| CCCNC(=O)c1ccc(-c2ccc3c(c2)CN(c2ccnc4ccccc24)CCO3)cc1 | 250 to 1000 nM |
| CC(=O)OCc1nc(C)c(Cc2ccc(F)cc2)c(N2CCOc3ccc(-c4ccc5[nH]c(C)nc5c4)cc3C2)n1 | 10 to 50 nM |
| Cc1nc2ccc(-c3ccc4c(c3)CN(c3ncncc3C)CCO4)cc2[nH]1 | 250 to 1000 nM |
| CC(O)CNS(=O)(=O)c1cc(-c2ccc3c(c2)CN(c2ncnc4c2CC(C)(C)CC4)CCO3)cnc1N (stereo unspecified) | 10 to 50 nM |
| Cc1nc2ccc(-c3ccc4c(c3)CN(c3ncnc5cc(F)c(F)cc35)CCO4)cc2[nH]1 | 50 to 250 nM |
| Cc1nc2ncc(-c3ccc4c(c3)CN(c3nc(CNC5CCCC5)nc5c3CC(C)(C)CC5)CCO4)cc2[nH]1 | 10 to 50 nM |
| CCNc1nc2ccc(-c3ccc4c(c3)CN(c3cc(Nc5ccccc5)ncn3)CCO4)cc2[nH]1 | 50 to 250 nM |
| CC1(C)CCc2ncnc(N3CCOc4ccc(-c5cnc(N)c(S(=O)(=O)NC[C@H]6CCNC6)c5)cc4C3)c2C1 | 10 to 50 nM |
| CC1(C)CCc2ncnc(N3CCOc4ccc(-c5cnc(N)c(S(=O)(=O)NCC6CCCNC6)c5)cc4C3)c2C1 (stereo unspecified) | 10 to 50 nM |
| CN1CC[C@H](CNS(=O)(=O)c2cc(-c3ccc4c(c3)CN(c3ncnc5c3CC(C)(C)CC5)CCO4)cnc2N)C1 | 50 to 250 nM |
| CC1(C)CCc2ncnc(N3CCOc4ccc(-c5cnc(N)c(S(=O)(=O)N6CCC6)c5)cc4C3)c2C1 | 10 to 50 nM |
| CC1(C)CCc2ncnc(N3CCOc4ccc(-c5cnc(N)c(S(=O)(=O)N6CCCC(N)C6)c5)cc4C3)c2C1 (stereo unspecified) | 50 to 250 nM |
| CNC(=O)c1ccc(-c2ccc3c(c2)CN(c2ccnc4ccccc24)CCO3)cc1 | 50 to 250 nM |
| CC1(C)CCc2ncnc(N3CCOc4ccc(-c5cnc6[nH]c(C7CC7)nc6c5)cc4C3)c2C1 | 10 to 50 nM |
| COc1c(OCc2ccccc2)ccc2c(N3CCOc4ccc(-c5ccc6nc(C)[nH]c6c5)cc4C3)ncnc12 | 10 to 50 nM |
| CCNc1nc2ccc(-c3ccc4c(c3)CN(c3cc(Nc5cccc(OC)c5)ncn3)CCO4)cc2[nH]1 | 250 to 1000 nM |
| CC1=CC(C)(C)Cc2c1ncnc2N1CCOc2ccc(-c3cnc(N)c(S(=O)(=O)N[C@@H]4CCN(C)C4)c3)cc2C1 | 50 to 250 nM |
| Cc1nc2ncc(-c3ccc4c(c3)CN(c3ncncc3C)CCO4)cc2[nH]1 | 250 to 1000 nM |
| Cc1nc2ncc(-c3ccc4c(c3)CN(c3nc(CN5CCOCC5)nc5c3CC(C)(C)CC5)CCO4)cc2[nH]1 | 10 to 50 nM |
| Cc1nc(Nc2ccccc2)c(C)c(N2CCOc3ccc(-c4cnc5nc[nH]c5c4)cc3C2)n1 | 10 to 50 nM |

Results, then the compound that gave them:

| IC50 | SMILES |
| --- | --- |
| 10 to 50 nM | Cc1nc2ccc(-c3ccc4c(c3)CN(c3nc(CN(C)C)nc(C)c3C)CCO4)cc2[nH]1 |
| 10 to 50 nM | Cc1nc2ncc(-c3ccc4c(c3)CN(c3ncnc5c3CC(C)(C)CC5)CCO4)cc2[nH]1 |
| ≤ 10 nM | CCNc1nc2ccc(-c3ccc4c(c3)CN(c3ncnc(NCC)c3C)CCO4)cc2[nH]1 |
| ≤ 10 nM | COC(=O)Nc1nc2ccc(-c3ccc4c(c3)CN(c3ccnc5cc(OC)c(OC)cc35)CCO4)cc2[nH]1 |
| 10 to 50 nM | Cc1nc2ccc(-c3ccc4c(c3)CN(c3nc(CNC5CC5)nc(C)c3Cc3ccc(F)cc3)CCO4)cc2[nH]1 |
| 10 to 50 nM | CC1=Cc2ncnc(N3CCOc4ccc(-c5cnc(N)c(S(=O)(=O)N6CC[C@@H](N)C6)c5)cc4C3)c2CC1(C)C |
| 10 to 50 nM | Cc1nc(N2CCOc3ccc(-c4ccc5nc(C)[nH]c5c4)cc3C2)c2ccccc2n1 |
| ≤ 10 nM | COc1ccc2c(N3CCOc4ccc(-c5cnc6[nH]c(C)nc6c5)cc4C3)nc(C)nc2c1 |
| ≤ 10 nM | COc1ccc2c(N3CCOc4ccc(-c5ccc6[nH]cnc6c5)cc4C3)nc(CN(C)C)nc2c1 |
| 10 to 50 nM | Cc1nc2cc(-c3ccc4c(c3)CN(c3nc(CF)nc5c3CC(C)(C)CC5)CCO4)ccc2[nH]1 |
| 10 to 50 nM | CC[C@H]1CCc2c(ncnc2N2CCOc3ccc(-c4cnc(N)c(S(=O)(=O)NCC(C)(C)N)c4)cc3C2)C1 |
| 10 to 50 nM | CCC1CCc2ncnc(N3CCOc4ccc(-c5cnc6nc(C)[nH]c6c5)cc4C3)c2C1 (stereo unspecified) |
| 10 to 50 nM | CC1=C(C)C(C)(C)Cc2c1ncnc2N1CCOc2ccc(-c3cnc4nc(C)[nH]c4c3)cc2C1 |
| 10 to 50 nM | Cc1nc2ncc(-c3ccc4c(c3)CN(c3nc(CNC5CC5)nc5c3CC(C)(C)CC5)CCO4)cc2[nH]1 |
| 10 to 50 nM | Cc1nc2ncc(-c3ccc4c(c3)CN(c3ncnc5c3CC[C@H](C)C5)CCO4)cc2[nH]1 |
| ≤ 10 nM | COc1ccc2c(N3CCOc4ccc(-c5cnc6sc(N)nc6c5)cc4C3)nc(C)nc2c1 |
| ≤ 10 nM | CN(CCO)S(=O)(=O)c1cc(-c2ccc3c(c2)CN(c2ncnc4c2CC(C)(C)CC4)CCO3)cnc1N |
| 10 to 50 nM | CCNc1nc2ccc(-c3ccc4c(c3)CN(c3ncnc5cc(OC)c(OC)cc35)CCO4)cc2[nH]1 |

| IC50 | SMILES |
| --- | --- |
| 10 to 50 nM | CCCc1c(C)nc(CN(C)C)nc1N1CCOc2ccc(-c3ccc4nc(C)[nH]c4c3)cc2C1 |
| ≤ 10 nM | CCNc1nc2ccc(-c3ccc4c(c3)CN(c3nc(CC)nc5cc(OC)ccc35)CCO4)cc2[nH]1 |
| 10 to 50 nM | Cc1ncnc(N2CCOc3ccc(-c4cnc5nc[nH]c5c4)cc3C2)c1Cc1ccc(F)cc1 |
| ≤ 10 nM | CCN(C)Cc1nc2c(c(N3CCOc4ccc(-c5cnc6nc(C)[nH]c6c5)cc4C3)n1)CC(C)(C)CC2 |
| 10 to 50 nM | Nc1nc2ncc(-c3ccc4c(c3)CN(c3ncnc5cccnc35)CCO4)cc2[nH]1 |
| 10 to 50 nM | CC1(C)CCc2ncnc(N3CCOc4ccc(-c5cnc(N)c(S(=O)(=O)N6CC[C@H](N)C6)c5)cc4C3)c2C1 |
| 10 to 50 nM | CC1(C)CCc2ncnc(N3CCOc4ccc(-c5cnc(N)c(S(=O)(=O)NCCN)c5)cc4C3)c2C1 |
| 10 to 50 nM | Cc1nc2ccc(-c3ccc4c(c3)CN(c3ncnc(C)c3C(C)c3ccccc3)CCO4)cc2[nH]1 (stereo unspecified) |
| 10 to 50 nM | CSc1nc2ccc(-c3ccc4c(c3)CN(c3ccnc5ccccc35)CCO4)cc2[nH]1 |
| 10 to 50 nM | CCNc1nc(C)nc(N2CCOc3ccc(-c4cnc5nc(C)[nH]c5c4)cc3C2)c1C |
| 10 to 50 nM | COc1cc2c(N3CCOc4ccc(-c5ccc6nc(C)[nH]c6c5)cc4C3)ncnc2cc1O |
| ≤ 10 nM | Cc1nc2ncc(-c3ccc4c(c3)CN(c3nc(CN(C)C)nc(C)c3CC3CC3)CCO4)cc2[nH]1 |
| 10 to 50 nM | Cc1nc2cc(-c3ccc4c(c3)CN(c3nc(CNCCF)nc(C)c3C(C)C)CCO4)ccc2[nH]1 |
| 10 to 50 nM | c1ccc2c(N3CCOc4ccc(-c5ccc6nc[nH]c6c5)cc4C3)ncnc2c1 |
| ≤ 10 nM | COc1ccc2ncnc(N3CCOc4ccc(-c5cnc6nc(N)[nH]c6c5)cc4C3)c2c1 |
| ≤ 10 nM | COc1ccc2c(N3CCOc4ccc(-c5ccc(-c6ncc[nH]6)cc5)cc4C3)nc(C)nc2c1 |
| ≤ 10 nM | CC[C@H]1CCc2c(nc(C)nc2N2CCOc3ccc(-c4cnc5nc(NC(=O)OC)[nH]c5c4)cc3C2)C1 |
